From US20260048047A1, “SMALL-MOLECULE ACTIVATORS OF MYCOBACTERIUM TUBERCULOSIS ADENYLYL CYCLASE” (priority 2022, published 2026)
Values after ≈ are worked out from the molar mass of the structure shown. “Also recorded” adds a separate entry of the source. Where two headings read alike, the source gives them in different places.

How the values were obtained:
[1] = tested on: non-replicating M. tuberculosis; assay: Hu Coats 100-day old culture model; conditions: for CFU reduction versus PB: added to PB; for Cidal activity compared to the NixTB combination: with Pretomanid and Bedaquiline
[2] = Plasma exposure over the cholesterol-media EC50 after oral dosing in mice; type: in vivo
Mtb H37Rv = assay: MIC determination in Mtb H37Rv (MABA, 7H12-Cholesterol media); type: cell-based; conditions: Mycobacterium tuberculosis, two batches
Method: MIC Determination in Mtb H37Rv
The minimum inhibitory concentration (MIC) of the test compounds were determined using ten-point, two-fold serial dilutions in 7H12-Cholesterol media using Microdilution Alamar Blue Assay (MABA) as previously described (Cho et al., 2015; VanderVen et al., 2015). Briefly, Mycobacterial cells at the mid-logarithmic phase of growth were diluted (1:1,000). Twenty μl of this dilution was added to each well containing 2-fold serially diluted test compounds and incubated for 7 days at 37° C. Alamar Blue (Invitrogen) reagent (4 μL per well) was added along with 20% Tween 80 (2.5 μL per well, Sigma Aldrich) to evaluate bacterial cell viability. Plates were read 24 h after adding Alamar Blue at absorbance 570 nm with a reference wavelength of 600 nm.

Mtb [3] = assay: Checkerboard combination assay with known anti-TB drugs (FIC index); type: cell-based, Mycobacterium tuberculosis; conditions: nine anti-TB drugs
Source text: Combination Testing of mCLB073 with Known Anti-TB Drugs
To test for interactions between mCLB073 and known anti-tubercular drugs in combination in an in vitro growth assay, a checkerboard assay to test for interactions between mCLB073 and drugs with known anti-TB activity using Alamar Blue as a viability marker (Lechartier et al., 2012) was used. Drug combinations were categorized based on fractional inhibitory concentration (FIC) index of FIC≤0.5 as synergistic, 0.5<FIC≤1 as additive, 1<FIC≤4 as no interaction and FIC ≥4 as antagonism (Hall et al., 1983).
Performed were synergy studies between mCLB073 and nine anti-TB drugs: Moxifloxacin (MOXI), Isoniazid (INH), Rifampicin (RIF), Streptomycin (STR), Levofloxacin (LEV), Linezolid (LIN), Ethionamide (ETH), Pretomanid (PA-824), and Bedaquiline (BDQ). A checkerboard titration in a microtiter plate was used as previously described (Hsieh et al., 1993).

Mtb [4] = type: in vivo, BALB/c mice; conditions: for Reduction in lung CFUs: mouse, in vivo
Mtb H37Ra = conditions: read-out: IC50 against Mtb H37Ra in cholesterol media
[5] = tested on: Mtb H37Rv (Mtb-lux) inside PMA-differentiated THP-1 cells; assay: Intramacrophage activity in THP-1 cells; type: cell-based, Mycobacterium tuberculosis
[6] = tested on: Mtb inside J774.1 macrophages; assay: Intramacrophage activity in J774.1 cells; type: cell-based, Mycobacterium tuberculosis
Mtb [7] = assay: Mtb growth inhibition in standard rich growth media (7H9 OADC) or acetate media; type: cell-based, Mycobacterium tuberculosis; conditions: media containing acetate
Rv1625c = biological target: T1, Rv1625c (Mycobacterium tuberculosis, UniProt P9WQ35); type: cell-based
T1 construct: endogenous in cells; host or cells: whole Mycobacterium tuberculosis (WT; CompFull = ΔRv1625c complemented with the entire rv1625c gene)
T1 sequence (P9WQ35 1-443): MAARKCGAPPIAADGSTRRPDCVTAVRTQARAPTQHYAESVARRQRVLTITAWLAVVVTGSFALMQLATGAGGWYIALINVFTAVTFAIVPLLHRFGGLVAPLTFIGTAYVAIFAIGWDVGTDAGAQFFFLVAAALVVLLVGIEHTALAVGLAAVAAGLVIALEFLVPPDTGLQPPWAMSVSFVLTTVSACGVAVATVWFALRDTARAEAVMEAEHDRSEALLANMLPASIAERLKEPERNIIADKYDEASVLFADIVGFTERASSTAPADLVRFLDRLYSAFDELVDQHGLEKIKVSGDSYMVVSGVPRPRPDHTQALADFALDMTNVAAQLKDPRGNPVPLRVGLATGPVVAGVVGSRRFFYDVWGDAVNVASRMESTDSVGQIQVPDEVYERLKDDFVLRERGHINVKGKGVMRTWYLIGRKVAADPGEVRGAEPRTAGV

Mtb [8] = assay: Chronic Mtb infection in C3HeB/FeJ mice; type: in vivo; conditions: infected and treated in the same manner
prpD'::GFP reporter = type: cell-based, Mycobacterium tuberculosis; conditions: V-59 10 μM
mammalian AC enzymes = conditions: human cell lines, 10 μM
Mtb in macrophages = assay: Inhibition of Mtb replication in macrophages (intramacrophage EC50); type: cell-based, Mycobacterium tuberculosis
[9] = tested on: Mtb cholesterol degradation; assay: Catabolic release of 14CO2 from radiolabelled lipid by Mtb; type: cell-based, Mycobacterium tuberculosis
Method: Because V-59 impairs growth of Mtb in cholesterol media, whether using V-59 to chemically activate Rv1625c inhibits the bacterium's ability to break down cholesterol was tested. When Mtb degrades the A-ring of [4-^14C]-cholesterol, [1-^14C]-pyruvate is released; subsequently, pyruvate dehydrogenase activity mediates the conversion of [1-^14C]-pyruvate into acetyl-CoA and ^14CO2. Therefore, to quantify cholesterol degradation in Mtb, ^14CO2 released following [4-^14C]-cholesterol breakdown by the bacteria was captured.

M. tuberculosis = assay: Extracellular activity against M. tuberculosis in cholesterol media (Alamar Blue reduction assay); type: cell-based, Mycobacterium tuberculosis
[10] = Mycobacterium tuberculosis, 240 h, 7H12-Cholesterol media, 10 days, read-out: Cholesterol broth: alamar blue--EC50

For CC(=O)NC[C@H]1CN(c2ccc(N3CCOCC3)c(F)c2)C(=O)O1 [LIN, Linezolid, reference compound], the “CFU reduction versus PB” value ([1]; 50 μM) was “superior CFU reduction”.
In the case of Cn1ncnc1CC(=O)N1CCC(c2nc(-c3ccc(Cl)c(Cl)c3)no2)CC1 [mCLB073, 1-(4-(3-(3,4-dichlorophenyl)-1,2,4-oxadiazol-5-yl)-1-piperidinyl)-2-(2-methyl-2H-1,2,4-triazol-3-yl)-1-ethanone], the “Plasma exposure over the EC50 identified in cholesterol media” value ([2]; dosed orally in mice) is reported as “at least 24 hours”, the MIC90 (Mtb H37Rv) is reported as 0.28 µM (≈ 0.118 µg/mL) and the “Antagonism with known anti-TB drugs” value (Mtb [3]) is reported as “did not display any antagonism”. For the same compound, the “Decrease of extent of lung pathology” value (Mtb [4]; BALB/c, 30 mg/kg oral once-daily, weeks 4-8) was about 45%, the “Lung bacterial burden when added to sub-optimal rifampicin” value (Mtb [4]; BALB/c, 30 mg/kg plus sub-optimal dose of rifampicin) was “did not increase the bacterial burden” and the “Reduction in lung CFUs” value (Mtb [4]; 5 mg/kg) was about 0.4 log10. The “Reduction in lung CFUs” value (Mtb [4]; po, 30 mg/kg) was about 0.4 log10, the IC50 (Mtb H37Ra) was 30.1 nM and the “Sinf (maximum inhibition), THP-1” value [5] was 76.8%. The EC50 ([5]; Mycobacterium tuberculosis, H37RV, THP-1, 72 h, luminescence, day 3, read-out: EC50, growth of Mtb inside PMA-differentiated THP-1 cells) was 40 nM, the “Sinf (maximum inhibition), J774.1” value [6] was 42.1% and the EC50 ([6]; Mycobacterium tuberculosis, J774.1, 72 h, luminescence, day 3, read-out: EC50, growth of Mtb inside J774.1 macrophages) was 50 nM. For the same compound, the “Efficacy when tested individually” value ([1]; 100-day-old culture, alone) was “no efficacy”, the “Activity in combination versus NixTB combination” value ([1]; Pretomanid 20.87 μM, Bedaquiline 2.25 μM, test drug 20, 8, 1 μM) was “comparable” and the “CFU reduction versus PB” value ([1]; 50 μM) was “superior CFU reduction”. The “Cidal activity compared to the NixTB combination” value ([1]; 50 μM) was “complete sterilization; also recorded: two log units better” and the “Cidal activity compared to the NixTB combination” value ([1]; all compounds at 20 μM) was “one-log improvement”.
With Cc1nonc1CC(=O)N1CCC(n2nnc(-c3ccc(F)cc3)n2)CC1 [Compound V-59, 1-(4-(5-(4-fluorophenyl)-2H-tetrazol-2-yl)piperidin-1-yl)-2-(4-methyl-1,2,5-oxadiazol-3-yl)ethan-1-one] the “Inhibition of Mtb growth in acetate media or standard rich growth media” value (Mtb [7]) was “not”, the “cAMP induction in WT Mtb” value (Rv1625c) was about 70 fold and the “cAMP induction in CompFull Mtb” value (Rv1625c; CompFull strain) was about 140 fold. The “Plasma exposure above the EC50 (cholesterol media)” value ([2]; oral dosing in mice at 20 mg/kg) was “approximately 24 hours”, the “Reduction in lung CFUs” value (Mtb [8]) was about 0.5 log10 and the “Decrease of prpD'::GFP signal in CompFull” value (prpD'::GFP reporter; CompFull strain) was about 90%. The “Decrease of prpD'::GFP signal in WT” value (prpD'::GFP reporter; WT) was about 50%, the “Activation of ACs in mammalian cells” value (mammalian AC enzymes) was “No evidence” and the “Reduction of extent of lung inflammation” value (Mtb [4]; BALB/c, 50 mg/kg oral once-daily, weeks 4-8) was about 50%. For the same compound, the “Reduction in lung CFUs” value (Mtb [4]; po, 50 mg/kg) was about 0.4 log10, the EC50 (Mtb in macrophages; Mycobacterium tuberculosis, Macrophage, read-out: EC50, inhibition of Mtb replication in macrophages) was 300 nM and the “Decrease of 14CO2 release from [4-14C]-cholesterol” value ([9]; WT Mtb) was about 89%. The “Effect on 14CO2 release from [U-14C]-palmitate” value ([9]; fatty acid breakdown) was “no measurable effect” and the EC50 (M. tuberculosis; Mycobacterium tuberculosis, read-out: EC50, inhibition of Mtb growth in cholesterol media) was 700 nM.
In the case of Cn1ncnc1CC(=O)N1[C@@H]2CC(c3nc(-c4ccc(Cl)c(Cl)c4)no3)C[C@H]1C2 (stereo partly shown) [mCLF025], the EC50 (Mtb in macrophages; Table S2, read-out: Macrophages EC50) is reported as over 30000 nM, the EC50 (M. tuberculosis; Table S2, read-out: Cholesterol EC50) is reported as over 30000 nM and the “Potency of trans isomer in words” value (M. tuberculosis; Table S2 assays) is reported as “inactive”.
For Cc1nonc1CC(=O)N1CCC(c2nc(-c3ccc(F)cc3)co2)CC1 [Compound 134, 1-(4-(4-(4-fluorophenyl)oxazol-2-yl)piperidin-1-yl)-2-(4-methyl-1,2,5-oxadiazol-3-yl)ethan-1-one], the EC50 (M. tuberculosis; [10]) was 1430 nM.
In the case of Cc1nonc1CC(=O)N1CCC(c2ccc(-c3ccc(F)cc3)nn2)CC1 [Compound 255, 1-(4-(6-(4-fluorophenyl)pyridazin-3-yl)piperidin-1-yl)-2-(4-methyl-1,2,5-oxadiazol-3-yl)ethan-1-one], the EC50 (M. tuberculosis; [10]) is reported as over 10000 nM.
With Cc1nonc1CC(=O)N1CCC(n2cc(C(=O)N3CCOCC3)nn2)CC1 [Compound 60, 2-(4-methyl-1,2,5-oxadiazol-3-yl)-1-(4-(4-(morpholine-4-carbonyl)-1H-1,2,3-triazol-1-yl)piperidin-1-yl)ethan-1-one] the EC50 (M. tuberculosis; [10]) was over 10000 nM.
Cc1noc(CC(=O)N2CCC(c3nc(-c4ccc(Cl)cc4)no3)CC2)n1 [Compound 34, 1-(4-(3-(4-chlorophenyl)-1,2,4-oxadiazol-5-yl)piperidin-1-yl)-2-(3-methyl-1,2,4-oxadiazol-5-yl)ethan-1-one] gave an EC50 (M. tuberculosis; [10]) of 399 nM.
Cc1noc(CC(=O)N2CCC(n3nnc(C4CCCC4)n3)CC2)n1 [Compound 21, 1-(4-(5-cyclopentyl-2H-tetrazol-2-yl)piperidin-1-yl)-2-(3-methyl-1,2,4-oxadiazol-5-yl)ethan-1-one] showed an EC50 (M. tuberculosis; [10]) of 7350 nM.
Cn1ncnc1CC(=O)N1CCC(c2nc(-c3ccc(OC(F)(F)F)cc3)no2)CC1 [Compound 170, 2-(1-methyl-1H-1,2,4-triazol-5-yl)-1-(4-(3-(4-(trifluoromethoxy)phenyl)-1,2,4-oxadiazol-5-yl)piperidin-1-yl)ethan-1-one] showed an EC50 (M. tuberculosis; [10]) of 130 nM.
Cc1noc(CC(=O)N2CC3CC2CC3c2nc(-c3ccc(Cl)c(Cl)c3)no2)n1 (stereo not shown) [Compound 190, 1-(5-(3-(3,4-dichlorophenyl)-1,2,4-oxadiazol-5-yl)-2-azabicyclo[2.2.1]heptan-2-yl)-2-(3-methyl-1,2,4-oxadiazol-5-yl)ethan-1-one] gave an EC50 (M. tuberculosis; [10]) of 2900 nM.
Cc1nonc1CC(=O)N1CCC(n2ccc(-c3ccccc3)n2)CC1 [Compound 79, 2-(4-methyl-1,2,5-oxadiazol-3-yl)-1-(4-(3-phenyl-1H-pyrazol-1-yl)piperidin-1-yl)ethan-1-one] gave an EC50 (M. tuberculosis; [10]) of over 10000 nM.
Work on Cc1nonc1CC(=O)N1CCC(c2nc(-c3cccc(Cl)c3)no2)CC1 [Compound 99, 1-(4-(3-(3-chlorophenyl)-1,2,4-oxadiazol-5-yl)piperidin-1-yl)-2-(4-methyl-1,2,5-oxadiazol-3-yl)ethan-1-one] yielded an EC50 (M. tuberculosis; [10]) of 530 nM.
CC(C)c1noc(CC(=O)N2CCC(c3nc(-c4ccc(Cl)c(Cl)c4)no3)CC2)n1 [Compound 5, 1-(4-(3-(3,4-dichlorophenyl)-1,2,4-oxadiazol-5-yl)piperidin-1-yl)-2-(3-isopropyl-1,2,4-oxadiazol-5-yl)ethan-1-one] gave an EC50 (M. tuberculosis; [10]) of 1430 nM.
In the case of Cc1nonc1CC(=O)N1CCC(c2nc(C3CCC(F)(F)C3)no2)CC1 (stereo not shown) [Compound 109, 1-(4-(3-(3,3-difluorocyclopentyl)-1,2,4-oxadiazol-5-yl)piperidin-1-yl)-2-(4-methyl-1,2,5-oxadiazol-3-yl)ethan-1-one], the EC50 (M. tuberculosis; [10]) is reported as 3250 nM.
